Measured values: US6737383B1, “Herbicidal oxadiazolidines” (priority 1999, dated 2004)

What was measured:
bedstraw = assay: Test B pre/postemergence bedstraw; assay type: in vivo, Galium aparine; settings: for Bedstraw plant response rating: Rate 500 g/ha
Source text: (§1) Seeds of bedstraw (Galium aparine), blackgrass (Alopecurus myosuroides), surinam grass (Brachiaria decumbens), cocklebur (Xanthium strumarium), corn (Zea mays), crabgrass (Digitaria sanguinalis), giant foxtail (Setaria faberii), morningglory (Ipomoea hederacea), pigweed (Amaranthus retroflexus), rape (Brassica napus), soybean (Glycine max), sugar beet (Beta vulgaris), velvetleaf (Abutilon theophrasti), wheat (Triticum aestivum), wild oat (Avena fatua) and purple nutsedge (Cyperus rotundus) tubers were planted and treated preemnergence with test chemicals formulated in a non-phytotoxic solvent mixture which included a surfactant.
(§2) At the same time, these crop and weed species were also treated with postemergence applications of test chemicals formulated in the same manner. Plants ranged in height from 2 to 18 cm (1- to 4-leaf stage) for postemergence treatments. Plant species in the flood test consisted of rice (Oryza sativa), smallflower flatsedge (Cyperus difformis), duck salad (Heteranthera limosa) and bamyardgrass (Echinochloa crus-galli) grown to the 2-leaf stage for testing. Treated plants and controls were maintained in a greenhouse for twelve to sixteen days, after which all species were compared to controls and visually evaluated. Plant response ratings, summarized in Table B, are based on a scale of 0 to 10 where 0 is no effect and 10 is complete control. A dash (−) response means no test result.

blackgrass = assay: Test B pre/postemergence blackgrass; assay type: in vivo, Alopecurus myosuroides
Source text: as §1, §2

surinam grass = assay: Test B pre/postemergence surinam grass; assay type: in vivo, Brachiaria decumbens
Source text: as §1, §2

cocklebur = assay: Test B pre/postemergence cocklebur; assay type: in vivo, Xanthium strumarium
Source text: as §1, §2

corn = assay: Test B pre/postemergence corn; assay type: in vivo, Zea mays
Source text: as §1, §2

crabgrass = assay: Test B pre/postemergence crabgrass; assay type: in vivo, Digitaria sanguinalis
Source text: as §1, §2

giant foxtail = assay: Test B pre/postemergence giant foxtail; assay type: in vivo, Setaria faberii
Source text: as §1, §2

morningglory = assay: Test B pre/postemergence morningglory; assay type: in vivo, Ipomoea hederacea
Source text: as §1, §2

pigweed = assay: Test B pre/postemergence pigweed; assay type: in vivo, Amaranthus retroflexus
Source text: as §1, §2

rape = assay: Test B pre/postemergence rape; assay type: in vivo, Brassica napus
Source text: as §1, §2

soybean = assay: Test B pre/postemergence soybean; assay type: in vivo, Glycine max
Source text: as §1, §2

sugar beet = assay: Test B pre/postemergence sugar beet; assay type: in vivo, Beta vulgaris
Source text: as §1, §2

velvetleaf = assay: Test B pre/postemergence velvetleaf; assay type: in vivo, Abutilon theophrasti
Source text: as §1, §2

wheat = assay: Test B pre/postemergence wheat; assay type: in vivo, Triticum aestivum
Source text: as §1, §2

wild oat = assay: Test B pre/postemergence wild oat; assay type: in vivo, Avena fatua
Outline: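 Response is a visual 0-to-10 score relative to untreated plants, where 0 means no effect and 10 means complete control, taken twelve to sixteen days after application. Treatments went onto soil at planting and onto foliage of 1- to 4-leaf plants, using a surfactant-containing non-phytotoxic solvent.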

purple nutsedge = assay: Test B pre/postemergence purple nutsedge; assay type: in vivo, Cyperus rotundus
Source text: as §1, §2

[1] = Preemergence, Rate 62 g/ha, scale 0 to 10, 0 is no effect, 10 is complete control
[2] = Preemergence, Rate 125 g/ha, scale 0 to 10 (0 no effect, 10 complete control)
[3] = Preemergence, Rate 250 g/ha, scale of 0 to 10 where 0 is no effect and 10 is complete control
[4] = Postemergence, Rate 62 g/ha, scale 0 to 10, 0 is no effect, 10 is complete control
[5] = Postemergence, Rate 250 g/ha, scale 0 to 10, 0 no effect, 10 complete control
[6] = Preemergence, Rate 500 g/ha, scale 0 (no effect) to 10 (complete control)
[7] = Rate 125 g/ha, Postemergence, scale 0 to 10, 0 no effect, 10 complete control
[8] = Rate 500 g/ha, Postemergence, 0 to 10 scale (0 no effect, 10 complete control)

## Cc1ccccc1-n1c(=O)on(C(=O)N(c2ccc(C(F)(F)F)cc2)C(C)C)c1=O [Compound 39]
bedstraw; [1]
  Plant response rating, Bedstraw: 0
bedstraw; [2]
  Plant response rating, Bedstraw: 0
bedstraw; [3]
  Plant response rating, Bedstraw: 0
bedstraw; Preemergence, scale 0 (no effect) to 10 (complete control)
  Bedstraw plant response rating: 0
bedstraw; Postemergence, 0 to 10 scale (0 no effect, 10 complete control)
  Bedstraw plant response rating: 0
blackgrass; [4]
  Blackgrass plant response rating: 0
blackgrass; [5]
  Blackgrass plant response rating: 0
blackgrass; [1]
  Plant response rating, Blackgrass: 0
blackgrass; [2]
  Plant response rating, Blackgrass: 0
blackgrass; [3]
  Plant response rating, Blackgrass: 0
blackgrass; [6]
  Blackgrass plant response rating: 0
blackgrass; [7]
  Blackgrass plant response rating: 0
blackgrass; [8]
  Blackgrass plant response rating: 0
Surinam grass; [4]
  B. signalgrass plant response rating: 0
Surinam grass; [5]
  B. signalgrass plant response rating: 0
Surinam grass; [1]
  Plant response rating, B. signalgrass: 0
Surinam grass; [2]
  Plant response rating, B. signalgrass: 0
Surinam grass; [3]
  Plant response rating, B. signalgrass: 0
Surinam grass; [6]
  B. signalgrass plant response rating: 0
Surinam grass; [7]
  B. signalgrass plant response rating: 0
Surinam grass; [8]
  B. signalgrass plant response rating: 0
cocklebur; [4]
  Cocklebur plant response rating: 0
cocklebur; [5]
  Cocklebur plant response rating: 0
cocklebur; [1]
  Plant response rating, Cocklebur: 0
cocklebur; [2]
  Plant response rating, Cocklebur: 0
cocklebur; [3]
  Plant response rating, Cocklebur: 0
cocklebur; [6]
  Cocklebur plant response rating: 0
cocklebur; [7]
  Cocklebur plant response rating: 0
cocklebur; [8]
  Cocklebur plant response rating: 0
corn; [4]
  Corn plant response rating: 0
corn; [5]
  Corn plant response rating: 0
corn; [1]
  Plant response rating, Corn: 0
corn; [2]
  Plant response rating, Corn: 0
corn; [3]
  Plant response rating, Corn: 0
corn; [6]
  Corn plant response rating: 0
corn; [7]
  Corn plant response rating: 0
corn; [8]
  Corn plant response rating: 0
crabgrass; [4]
  Crabgrass plant response rating: 0
crabgrass; [5]
  Crabgrass plant response rating: 3
crabgrass; [1]
  Plant response rating, Crabgrass: 0
crabgrass; [2]
  Plant response rating, Crabgrass: 3
crabgrass; [3]
  Plant response rating, Crabgrass: 5
crabgrass; [6]
  Crabgrass plant response rating: 6
crabgrass; [7]
  Crabgrass plant response rating: 0
crabgrass; [8]
  Crabgrass plant response rating: 4
Giant foxtail; [4]
  Giant foxtail plant response rating: 0
Giant foxtail; [5]
  Giant foxtail plant response rating: 0
Giant foxtail; [1]
  Plant response rating, Giant foxtail: 0
Giant foxtail; [2]
  Plant response rating, Giant foxtail: 0
Giant foxtail; [6]
  Giant foxtail plant response rating: 10
Giant foxtail; [7]
  Giant foxtail plant response rating: 0
Giant foxtail; [8]
  Giant foxtail plant response rating: 0
morningglory; [4]
  Morningglory plant response rating: 0
morningglory; [5]
  Morningglory plant response rating: 0
morningglory; [1]
  Plant response rating, Morningglory: 0
morningglory; [2]
  Plant response rating, Morningglory: 0
morningglory; [3]
  Plant response rating, Morningglory: 0
morningglory; [6]
  Morningglory plant response rating: 0
morningglory; [7]
  Morningglory plant response rating: 0
morningglory; [8]
  Morningglory plant response rating: 0
pigweed; [4]
  Redroot pigweed plant response rating: 0
pigweed; [5]
  Redroot pigweed plant response rating: 0
pigweed; [1]
  Plant response rating, Redroot pigweed: 0
pigweed; [2]
  Plant response rating, Redroot pigweed: 5
pigweed; [3]
  Plant response rating, Redroot pigweed: 6
pigweed; [6]
  Redroot pigweed plant response rating: 6
pigweed; [7]
  Redroot pigweed plant response rating: 0
pigweed; [8]
  Redroot pigweed plant response rating: 0
rape; [4]
  Rape plant response rating: 0
rape; [5]
  Rape plant response rating: 0
rape; [1]
  Plant response rating, Rape: 2
rape; [2]
  Plant response rating, Rape: 0
rape; [3]
  Plant response rating, Rape: 0
rape; [6]
  Rape plant response rating: 0
rape; [7]
  Rape plant response rating: 0
rape; [8]
  Rape plant response rating: 0
soybean; [4]
  Soybean plant response rating: 3
soybean; [5]
  Soybean plant response rating: 4
soybean; [1]
  Plant response rating, Soybean: 0
soybean; [2]
  Plant response rating, Soybean: 0
soybean; [3]
  Plant response rating, Soybean: 0
soybean; [6]
  Soybean plant response rating: 0
soybean; [7]
  Soybean plant response rating: 4
Sugar beet; [4]
  Sugarbeets plant response rating: 0
Sugar beet; [5]
  Sugarbeets plant response rating: 0
Sugar beet; [1]
  Plant response rating, Sugarbeets: 2
Sugar beet; [2]
  Plant response rating, Sugarbeets: 0
Sugar beet; [3]
  Plant response rating, Sugarbeets: 0
Sugar beet; [6]
  Sugarbeets plant response rating: 0
Sugar beet; [7]
  Sugarbeets plant response rating: 0
velvetleaf; [5]
  Velvetleaf plant response rating: 0
velvetleaf; [1]
  Plant response rating, Velvetleaf: 0
velvetleaf; [2]
  Plant response rating, Velvetleaf: 0
velvetleaf; [3]
  Plant response rating, Velvetleaf: 0
velvetleaf; [6]
  Velvetleaf plant response rating: 0
velvetleaf; [7]
  Velvetleaf plant response rating: 0
wheat; [4]
  Wheat plant response rating: 0
wheat; [5]
  Wheat plant response rating: 0
wheat; [1]
  Plant response rating, Wheat: 0
wheat; [2]
  Plant response rating, Wheat: 0
wheat; [3]
  Plant response rating, Wheat: 0
wheat; [6]
  Wheat plant response rating: 0
wheat; [7]
  Wheat plant response rating: 0
Wild oat; [4]
  Wild oats plant response rating: 0
Wild oat; [5]
  Wild oats plant response rating: 0
Wild oat; [2]
  Plant response rating, Wild oats: 0
Wild oat; [3]
  Plant response rating, Wild oats: 0
Wild oat; [6]
  Wild oats plant response rating: 0
Wild oat; [7]
  Wild oats plant response rating: 0
Purple nutsedge; [4]
  Nutsedge plant response rating: 0
Purple nutsedge; [5]
  Nutsedge plant response rating: 0
Purple nutsedge; [1]
  Plant response rating, Nutsedge: 0
Purple nutsedge; [2]
  Plant response rating, Nutsedge: 0
Purple nutsedge; [3]
  Plant response rating, Nutsedge: 0
Purple nutsedge; [6]
  Nutsedge plant response rating: 0
Purple nutsedge; [7]
  Nutsedge plant response rating: 0
Purple nutsedge; [8]
  Nutsedge plant response rating: 0
